Values after ≈ are worked out from the molar mass of the structure shown. Where two headings read alike, the source gives them in different places.

In one test the test system is S.aureus (Smith). Description: Minimal Inhibitory Concentration (MIC) determination, 96 well plates. The class given is cell-based, Staphylococcus aureus. Particulars: Staphylococcus aureus; HBI medium, 16 to 18 hours at 37°C; read-out: MIC (µg/ml) S.aureus (Smith). The procedure, abridged:
(§1)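 Broth growth in Heart-Brain Infusion medium, seeded at about 1x10^5 CFU/ml, 16 to 18 hours at 37°C. Growth read at OD 600 nm as percent of untreated control; five concentrations per drug, five data points each, MIC reported in µg/ml.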

The subject of a further test is E. coli. The description is as above. It is filed as cell-based, Escherichia coli. The conditions noted are these: Escherichia coli, read-out: MIC (µg/ml) E. coli. In outline:
(§2)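 Cultures seeded at approximately 1x10^5 CFU/ml in Heart-Brain Infusion medium were exposed to five compound concentrations, five data points each, for 16 to 18 hours at 37°C. Growth at OD 600 nm was expressed as percent of control, and MIC values are given in µg/ml.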

The next test relates to E. fecium. The test is described as above. It is filed as cell-based, Enterococcus fecium. The conditions noted are these: Enterococcus; HBI medium, 16 to 18 hours at 37°C; read-out: MIC (µg/ml) E. fecium. The procedure, abridged:
as §1

The next test has as its system S. aureus. Described as above. Particulars: Staphylococcus aureus; HBI medium, 16 to 18 hours at 37°C; read-out: MIC (µg/ml) S. aureus. The class given is cell-based, Staphylococcus aureus. In outline:
as §2

A further test relates to B. subtilis. The test is described as above. It is filed as cell-based, Bacillus subtilis. The conditions noted are these: Bacillus subtilis; HBI medium, 16 to 18 hours at 37°C; read-out: MIC (µg/ml) B. subtilis. The procedure, abridged: as §1
A further test has as its system E. fecalis. The test is described as above. The class given is cell-based, Enterococcus fecalis. Particulars: Enterococcus; HBI medium, 16 to 18 hours at 37°C; read-out: MIC (µg/ml) E. fecalis. The procedure, abridged:
as §1

A further test deals with T1, B. subtilis Pol IIIC (Bacillus subtilis, UniProt P13267).
T1 construct: made in house
Description: Polymerase IIIC (Pol IIIC) assay, determination of Ki values. It is filed as biochemical. Particulars: assay in absence of dGTP or dATP, Ki is the concentration that reduces control polymerase IIIC activity by 50 percent; for Ki: Ki (µM) Pol IIIC. In outline: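 Isolated B. subtilis Pol IIIC (0.025–0.06 units) run 10 min at 30°C in 30 mM Tris pH 7.5, 10 mM Mg acetate, 4 mM DTT, 20% glycerol. Substrates were 0.4 mg/ml activated calf thymus DNA, 25 µM dNTPs and 10 µM [3H]dTTP, with dGTP or dATP omitted per compound structure.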

Setting [1] is: HBI medium, 16 to 18 hours at 37°C.

T1 sequence (P13267 whole entry): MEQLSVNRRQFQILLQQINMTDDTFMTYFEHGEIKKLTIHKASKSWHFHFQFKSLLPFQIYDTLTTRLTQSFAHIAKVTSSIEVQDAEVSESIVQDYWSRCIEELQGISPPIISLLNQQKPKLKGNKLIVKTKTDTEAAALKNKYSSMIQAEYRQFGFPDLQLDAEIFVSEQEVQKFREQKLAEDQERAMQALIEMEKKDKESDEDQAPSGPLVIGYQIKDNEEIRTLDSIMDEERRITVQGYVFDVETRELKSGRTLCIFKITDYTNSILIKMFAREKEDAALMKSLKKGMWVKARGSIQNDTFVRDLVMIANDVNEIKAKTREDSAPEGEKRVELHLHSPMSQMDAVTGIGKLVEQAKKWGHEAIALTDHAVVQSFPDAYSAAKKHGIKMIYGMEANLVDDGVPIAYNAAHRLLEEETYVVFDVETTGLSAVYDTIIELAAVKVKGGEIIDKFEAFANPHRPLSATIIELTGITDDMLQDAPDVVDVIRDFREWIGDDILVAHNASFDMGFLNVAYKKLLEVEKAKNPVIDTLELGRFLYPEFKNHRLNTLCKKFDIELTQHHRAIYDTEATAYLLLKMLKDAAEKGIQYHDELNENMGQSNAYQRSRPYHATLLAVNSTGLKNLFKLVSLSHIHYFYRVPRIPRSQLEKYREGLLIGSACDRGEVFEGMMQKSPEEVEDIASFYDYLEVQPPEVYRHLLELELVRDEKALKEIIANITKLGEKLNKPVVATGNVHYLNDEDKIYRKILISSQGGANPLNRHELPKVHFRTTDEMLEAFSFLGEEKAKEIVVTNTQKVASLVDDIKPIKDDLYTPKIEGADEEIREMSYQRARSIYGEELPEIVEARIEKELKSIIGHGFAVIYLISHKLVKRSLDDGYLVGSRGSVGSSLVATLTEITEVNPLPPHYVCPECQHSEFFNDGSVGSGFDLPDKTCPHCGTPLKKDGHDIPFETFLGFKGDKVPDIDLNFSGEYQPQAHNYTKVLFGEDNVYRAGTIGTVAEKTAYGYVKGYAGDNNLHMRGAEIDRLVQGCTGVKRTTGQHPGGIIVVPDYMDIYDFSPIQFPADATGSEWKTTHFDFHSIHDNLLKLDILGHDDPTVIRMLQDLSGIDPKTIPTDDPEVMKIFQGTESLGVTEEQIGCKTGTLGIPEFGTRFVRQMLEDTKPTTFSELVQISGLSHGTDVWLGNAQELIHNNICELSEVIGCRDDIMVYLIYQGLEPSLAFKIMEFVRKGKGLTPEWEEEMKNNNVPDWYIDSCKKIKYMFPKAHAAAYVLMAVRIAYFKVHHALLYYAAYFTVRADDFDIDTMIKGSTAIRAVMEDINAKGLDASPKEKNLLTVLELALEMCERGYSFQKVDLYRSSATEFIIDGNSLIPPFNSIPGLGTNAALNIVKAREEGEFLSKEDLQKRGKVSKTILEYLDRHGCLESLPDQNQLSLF

As for `CCc1cc(Nc2cc(=O)n(CCCCN3CCN(c4cc5c(cc4F)c(=O)c(C(=O)O)cn5-c4ccc(F)cc4F)CC3C)c(=O)[nH]2)ccc1C` (stereo not shown) [Compound 89, 3-{4-[1-(1-{2,4-difluorophenyl}-3-carboxy-4-oxo-6-fluoro-7-quinolyl)-3-methyl-4-piperazinyl]butyl}-6-(3-ethyl-4-methylanilino)uracil], the MIC in the test with S.aureus (Smith) was 0.156 µg/mL (≈ 0.218 µM); in the test with E. coli (setting [1]) it was greater than 80 µg/mL; in the test with E. fecium, 0.625 µg/mL (≈ 0.872 µM); in the test on S. aureus, 0.313 µg/mL (≈ 0.437 µM); with B. subtilis, 0.156 µg/mL (≈ 0.218 µM); in the test on E. fecalis, 0.625 µg/mL (≈ 0.872 µM). Further, the affinity at B. subtilis Pol IIIC corresponds to a Ki of 0.018 µM.
In the case of `CCc1cc(Nc2cc(=O)n(CCCCN3CCN(c4cc5c(cc4F)c(=O)c(C(=O)O)cn5-c4ccc(F)cc4F)C[C@H]3C)c(=O)[nH]2)ccc1C` [Compound 90, (R)-3-{4-[1-(1-{2,4-difluorophenyl}-3-carboxy-4-oxo-6-fluoro-7-quinolyl)-3-methyl-4-piperazinyl]butyl}-6-(3-ethyl-4-methylanilino)uracil], the MIC is 0.313 µg/mL (≈ 0.437 µM) in the test with S.aureus (Smith); greater than 40 µg/mL in the test on E. coli (setting [1]); 1.25 µg/mL (≈ 1.74 µM) in the test with E. fecium; 0.625 µg/mL (≈ 0.872 µM) in the test on S. aureus; 0.236 µg/mL (≈ 0.329 µM) with B. subtilis; 1.25 µg/mL (≈ 1.74 µM) with E. fecalis. On B. subtilis Pol IIIC, the Ki was found to be 0.017 µM.
Take `CCc1cc(Nc2cc(=O)n(CCCCN3CCN(c4c(F)cc5c(=O)c(C(=O)O)cn(C6CC6)c5c4F)CC3CO)c(=O)[nH]2)ccc1C` (stereo not shown) [Compound 91, 3-{4-[1-(1-cyclopropyl-3-carboxy-4-oxo-6,8-difluoro-7-quinolyl)-3-hydroxymethyl-4-piperazinyl]butyl}-6-(3-ethyl-4-methylanilino)uracil]: the MIC is 0.625 µg/mL (≈ 0.921 µM) in the test with S.aureus (Smith); greater than 80 µg/mL in the test with E. coli (setting [1]); 2.5 µg/mL (≈ 3.68 µM) with E. fecium; 1.25 µg/mL (≈ 1.84 µM) in the test on S. aureus; 0.235 µg/mL (≈ 0.346 µM) in the test on B. subtilis; 2.5 µg/mL (≈ 3.68 µM) with E. fecalis. Moreover, the Ki at B. subtilis Pol IIIC came to 0.011 µM.
Consider `CC1CN(c2c(F)cc3c(=O)c(C(=O)O)cn(C4CC4)c3c2F)CCN1CCCCn1c(=O)cc(Nc2ccc3c(c2)CCC3)[nH]c1=O` (stereo not shown) [Compound 92, 3-{4-[1-(1-cyclopropyl-3-carboxy-4-oxo-6,8-difluoro-7-quinolyl)-3-methyl-4-piperazinyl]butyl}-6-(5-indanylamino)uracil], for which the MIC in the test with S.aureus (Smith) is 0.235 µg/mL (≈ 0.356 µM); in the test with E. coli (setting [1]), 2.5 µg/mL (≈ 3.78 µM); in the test with E. fecium, 0.937 µg/mL (≈ 1.42 µM); in the test on S. aureus, 0.313 µg/mL (≈ 0.474 µM); in the test on B. subtilis, 0.117 µg/mL (≈ 0.177 µM); in the test with E. fecalis it was 0.625 µg/mL (≈ 0.946 µM). At B. subtilis Pol IIIC, this compound showed an inhibition constant Ki of 0.016 µM.
For the compound `Cc1ccc(Nc2cc(=O)n(CCCCN3CCN(c4c(F)cc5c(=O)c(C(=O)O)cn(C6CC6)c5c4F)CC3C)c(=O)[nH]2)cc1C` (stereo not shown) [Compound 94, 3-{4-[1-(1-cyclopropyl-3-carboxy-4-oxo-6,8-difluoro-7-quinolyl)-3-methyl-4-piperazinyl]butyl}-6-(3,4-dimethylanilino)uracil], the MIC in the test on S.aureus (Smith) stood at 0.313 µg/mL (≈ 0.482 µM); in the test with E. coli (setting [1]), 2.5 µg/mL (≈ 3.85 µM); in the test on E. fecium, 2.5 µg/mL (≈ 3.85 µM); in the test with S. aureus, 0.625 µg/mL (≈ 0.963 µM); in the test on B. subtilis, 0.156 µg/mL (≈ 0.24 µM); with E. fecalis, 1.25 µg/mL (≈ 1.93 µM). Also, the Ki at B. subtilis Pol IIIC amounted to 0.026 µM.
In the case of `CCc1cc(Nc2cc(=O)n(CCCCN3CCN(c4cc5c(cc4F)c(=O)c(C(=O)O)cn5C4CC4)C[C@H]3C)c(=O)[nH]2)ccc1C` [Compound 95, (R)-3-{4-[1-(1-cyclopropyl-3-carboxy-4-oxo-6-fluoro-7-quinolyl)-3-methyl-4-piperazinyl]butyl}-6-(3-ethyl-4-methylanilino)uracil], the MIC in the test on S.aureus (Smith) was 0.625 µg/mL (≈ 0.969 µM); in the test with E. coli (setting [1]), 10 µg/mL (≈ 15.5 µM); in the test on E. fecium, 0.625 µg/mL (≈ 0.969 µM); with S. aureus it was 1.25 µg/mL (≈ 1.94 µM); with B. subtilis, 0.235 µg/mL (≈ 0.364 µM); in the test with E. fecalis it was 0.625 µg/mL (≈ 0.969 µM). On B. subtilis Pol IIIC, the affinity corresponds to a Ki of 0.012 µM.
In the case of `Cc1ccc(Nc2cc(=O)n(CCCCN3CCN(c4cc5c(cc4F)c(=O)c(C(=O)O)cn5C4CC4)C[C@H]3C)c(=O)[nH]2)cc1C` [Compound 96, (R)-3-{4-[1-(1-cyclopropyl-3-carboxy-4-oxo-6-fluoro-7-quinolyl)-3-methyl-4-piperazinyl]butyl}-6-(3,4-dimethylanilino)uracil], the MIC with S.aureus (Smith) came to 0.313 µg/mL (≈ 0.496 µM); in the test on E. coli (setting [1]), 5 µg/mL (≈ 7.93 µM); in the test with E. fecium, 0.625 µg/mL (≈ 0.991 µM); with S. aureus, 0.625 µg/mL (≈ 0.991 µM); with B. subtilis, 0.156 µg/mL (≈ 0.247 µM); with E. fecalis, 0.625 µg/mL (≈ 0.991 µM). For the same compound, the affinity at B. subtilis Pol IIIC, expressed as Ki, was 0.019 µM.
Turning to `Cc1ccc(Nc2cc(=O)n(CCCCN3CCN(c4cc5c(cc4F)c(=O)c(C(=O)O)cn5C4CC4)C[C@@H]3C)c(=O)[nH]2)cc1C` [Compound 97, (S)-3-{4-[1-(1-cyclopropyl-3-carboxy-4-oxo-6-fluoro-7-quinolyl)-3-methyl-4-piperazinyl]butyl}-6-(3,4-dimethylanilino)uracil], the MIC in the test with S.aureus (Smith) was 0.625 µg/mL (≈ 0.991 µM); in the test on E. coli (setting [1]) it was 40 µg/mL (≈ 63.4 µM); in the test with E. fecium, 1.25 µg/mL (≈ 1.98 µM); in the test with S. aureus, 1.25 µg/mL (≈ 1.98 µM); in the test with B. subtilis, 0.235 µg/mL (≈ 0.373 µM); in the test with E. fecalis, 0.625 µg/mL (≈ 0.991 µM). The compound further returned a Ki at B. subtilis Pol IIIC of 0.037 µM.
Regarding `Cc1ccc(Nc2cc(=O)n(CCCCN3CCN(c4c(F)cc5c(=O)c(C(=O)O)cn(C6CC6)c5c4F)C[C@H]3C)c(=O)[nH]2)cc1C` [Compound 98, (R)-3-{4-[1-(1-cyclopropyl-3-carboxy-4-oxo-6,8-difluoro-7-quinolyl)-3-methyl-4-piperazinyl]butyl}-6-(3,4-dimethylanilino)uracil], the MIC with S.aureus (Smith) came to 0.625 µg/mL (≈ 0.963 µM); in the test with E. coli (setting [1]), 5 µg/mL (≈ 7.71 µM); in the test on E. fecium it was 1.25 µg/mL (≈ 1.93 µM); in the test on S. aureus, 1.25 µg/mL (≈ 1.93 µM); in the test with B. subtilis it was 0.313 µg/mL (≈ 0.482 µM); with E. fecalis, 1.25 µg/mL (≈ 1.93 µM). Besides, the Ki on B. subtilis Pol IIIC was determined as 0.029 µM.
Turning to `Cc1ccc(Nc2cc(=O)n(CCCCN3CCN(c4c(F)cc5c(=O)c(C(=O)O)cn(C6CC6)c5c4F)C[C@@H]3C)c(=O)[nH]2)cc1C` [Compound 99, (S)-3-{4-[1-(1-cyclopropyl-3-carboxy-4-oxo-6,8-difluoro-7-quinolyl)-3-methyl-4-piperazinyl]butyl}-6-(3,4-dimethylanilino)uracil], the MIC in the test with S.aureus (Smith) came to 0.156 µg/mL (≈ 0.24 µM); in the test on E. coli (setting [1]) it was 0.625 µg/mL (≈ 0.963 µM); in the test with E. fecium it was 1.25 µg/mL (≈ 1.93 µM); with S. aureus, 0.313 µg/mL (≈ 0.482 µM); in the test on B. subtilis, 0.156 µg/mL (≈ 0.24 µM); in the test on E. fecalis, 0.625 µg/mL (≈ 0.963 µM). The compound further yielded a Ki on B. subtilis Pol IIIC of 0.03 µM.
For the compound `CCc1cc(Nc2cc(=O)n(CCCCN3CCN(c4cc5c(cc4F)c(=O)c(C(=O)O)cn5C4CC4)C[C@@H]3C)c(=O)[nH]2)ccc1C` [Compound 100, (S)-3-{4-[1-(1-cyclopropyl-3-carboxy-4-oxo-6-fluoro-7-quinolyl)-3-methyl-4-piperazinyl]butyl}-6-(3-ethyl-4-methylanilino)uracil], the MIC amounted to 0.625 µg/mL (≈ 0.969 µM) in the test with S.aureus (Smith); 50 µg/mL (≈ 77.5 µM) in the test with E. coli (setting [1]); 0.937 µg/mL (≈ 1.45 µM) in the test with E. fecium; 0.937 µg/mL (≈ 1.45 µM) in the test on S. aureus; 0.156 µg/mL (≈ 0.242 µM) in the test with B. subtilis; 0.475 µg/mL (≈ 0.737 µM) with E. fecalis. On B. subtilis Pol IIIC, this compound had a Ki of 0.011 µM.
As for `Cc1ccc(Nc2cc(=O)n(CCCCN3CCN(c4c(F)cc5c(=O)c(C(=O)O)cn(C6CC6)c5c4F)CC3)c(=O)[nH]2)cc1C` [Compound 101, 3-{4-[1-(1-cyclopropyl-3-carboxy-4-oxo-6,8-difluoro-7-quinolyl)-4-piperazinyl]butyl}-6-(3,4-dimethylanilino)uracil], the MIC with S.aureus (Smith) is 0.313 µg/mL (≈ 0.493 µM); with E. coli (setting [1]), 5 µg/mL (≈ 7.88 µM); with E. fecium, 1.25 µg/mL (≈ 1.97 µM); in the test on S. aureus, 0.625 µg/mL (≈ 0.985 µM); in the test with B. subtilis it was 0.235 µg/mL (≈ 0.37 µM); in the test with E. fecalis it was 0.937 µg/mL (≈ 1.48 µM). On B. subtilis Pol IIIC, this compound came in with a Ki of 0.024 µM.
Regarding `CCn1cc(C(=O)O)c(=O)c2cc(F)c(N3CCNCC3)cc21` [nflxn, norfloxacin, reference compound], the MIC is 0.156 µg/mL (≈ 0.489 µM) in the test with S.aureus (Smith); 0.078 µg/mL (≈ 0.244 µM) in the test on E. coli; 20 µg/mL (≈ 62.6 µM) in the test on E. fecium; 0.625 µg/mL (≈ 1.96 µM) with S. aureus; 0.625 µg/mL (≈ 1.96 µM) in the test on B. subtilis; 2.5 µg/mL (≈ 7.83 µM) in the test with E. fecalis. Further, the “Ki (µM) Pol IIIC” value at B. subtilis Pol IIIC is “inactive”.

(Values after EP1401829B1, “NOVEL HETEROCYCLIC ANTIBACTERIAL COMPOUNDS” (Microbiotix, Inc., priority 2001, dated 2002).)
